Drawing on paper doi:10.64898/2025.12.10.692519v1 (biorxiv, 2025), this text covers IC50 for one compound.

Experiment in all cases: cells
One assay deals with NALM-6. The following applies: Homo sapiens, NALM-6, 144 h, read-out: AB8939.
The test system of another assay is Karpas-299. The following applies: Homo sapiens, KARPAS-299, 144 h, read-out: AB8939.
In a further assay the test system is MDA-MB-468. The following applies: Homo sapiens, MDA-MB-468, 144 h, read-out: AB8939.
The test system of another assay is PANC-1. Conditions: Homo sapiens, PANC-1, 144 h, read-out: AB8939.
The test system of the next assay is DU-145. Conditions: Homo sapiens, DU-145, 144 h, read-out: AB8939.
In another assay the test system is MESSA. Conditions: Homo sapiens, MES-SA, 144 h, read-out: AB8939.
Another assay concerns MCF-7. Conditions: Homo sapiens, MCF7, 144 h, read-out: AB8939.
The test system of the next assay is PC-3. The following applies: Homo sapiens, PC-3, 144 h, read-out: AB8939.
For another assay, the system named is HL-60. The following applies: Homo sapiens, HL-60, 144 h, read-out: AB8939.
A further assay deals with THP-1. Conditions: Homo sapiens, THP-1, 144 h, read-out: AB8939.
The subject of another assay is PLC-PRF5. The following applies: Homo sapiens, PLC-PRF-5, 144 h, read-out: AB8939.
The subject of the next assay is ACHN. Conditions: Homo sapiens, ACHN, 144 h, read-out: AB8939.
The subject of a further assay is U-118. Conditions: 144 h, read-out: AB8939.
A further assay has as its system A4573. The following applies: A4573, 144 h, read-out: AB8939.
The subject of the next assay is NOMO-1. The following applies: Homo sapiens, NOMO-1, 144 h, read-out: AB8939.
The next assay relates to SK-N-MC. The following applies: Homo sapiens, SK-N-MC, 144 h, read-out: AB8939.
The next assay deals with HUT-78. Conditions: Homo sapiens, HuT78, 144 h, read-out: AB8939.
The subject of the next assay is HEP-2. The following applies: Homo sapiens, HEp-2, 144 h, read-out: AB8939.
The next assay relates to SW-872. The following applies: Homo sapiens, SW872, 144 h, read-out: AB8939.

As to `CCOCc1ccc(C)c(Nc2ncc(-c3ccc(N4CCNC4=O)cc3)o2)c1` [AB8939], the IC50 in the assay on NALM-6 was 1 nM; with Karpas-299, 1 nM; with MDA-MB-468, 14 nM; with PANC-1, 1 nM; in the assay with DU-145, 2 nM; in the assay with MESSA, 7 nM. For the same compound, the IC50 was determined as 122 nM in the assay with MCF-7; 8 nM in the assay on PC-3; 14 nM with HL-60; 49 nM in the assay with THP-1; 2 nM with PLC-PRF5; 4 nM in the assay on ACHN. In addition, the IC50 in the assay with U-118 was determined as 1 nM; with A4573 it was 3 nM; with NOMO-1 it was 46 nM; in the assay with SK-N-MC, 1 nM; with HUT-78 it was 4 nM; in the assay on HEP-2 it was 1 nM. Further, the IC50 in the assay on SW-872 is 1 nM.
